Reference: patent US20060154880A1, “Methods and compositions using immunomodulatory compounds for treatment and management of parasitic diseases” (priority 2004, published 2006)

Assays:
[1] = test system: IFN-γ production; test: Augmentation of IFN-γ production following TCR activation of T-cells; type: cell-based
[2] = test system: IL-6 production; test: LPS-stimulated production of IL-6 by PBMC; type: cell-based
[3] = test system: TNF-α production; test: Inhibition of TNF-α production following LPS-stimulation of human PBMC; type: cell-based
[4] = test system: T-cells; test: Stimulation of T-cell proliferation following primary induction by TCR activation; type: cell-based
[5] = test system: IL-1β production; test: LPS-stimulated production of IL-1β by PBMC; type: cell-based
[6] = test system: IL-10 production; test: LPS-stimulated production of IL-10 by PBMC; type: cell-based
[7] = test system: IL-2 production; test: Augmentation of IL-2 production following TCR activation of PBMC; type: cell-based
[8] = cited from earlier work; for hygroscopicity: polymorphic form, solid state; for stability / interconversion of polymorphic form: solvent system as stated

Nc1cccc2c1CN(C1CCC(=O)NC1=O)C2=O (stereo not shown)
potency relative to thalidomide in augmenting the production of IFN-γ [1]: 50-100 times
effect on LPS-stimulated production of IL-6 by PBMC [2]: dose-dependent inhibition
effect on LPS-stimulated production of TNF-α by PBMC [3]: dose-dependent inhibition
potency relative to thalidomide in stimulating the proliferation of T-cells [4]: 50-100 times
effect on LPS-stimulated production of IL-1β by PBMC [5]: dose-dependent inhibition
effect on production of the anti-inflammatory cytokine IL-10 [6]: increased production
potency relative to thalidomide in augmenting the production of IL-2 [7]: 50-100 times

Nc1cccc2c1CN(C1CCC(=O)NC1=O)C2=O (stereo not shown) [Form A, 3-(4-amino-1-oxo-1,3 dihydro-isoindol-2-yl)-piperidene-2,6-dione]
hygroscopicity [8]: weakly or not hygroscopic
stability / interconversion of polymorphic form [8]: most thermodynamically stable anhydrous polymorph

Nc1cccc2c1CN(C1CCC(=O)NC1=O)C2=O (stereo not shown) [Form B, 3-(4-amino-1-oxo-1,3 dihydro-isoindol-2-yl)-piperidene-2,6-dione]
stability / interconversion of polymorphic form [8]: converts to Form E in aqueous solvent systems

Nc1cccc2c1CN(C1CCC(=O)NC1=O)C2=O (stereo not shown) [Form C, 3-(4-amino-1-oxo-1,3 dihydro-isoindol-2-yl)-piperidene-2,6-dione]
hygroscopicity [8]: not hygroscopic below about 85% RH

Nc1cccc2c1CN(C1CCC(=O)NC1=O)C2=O (stereo not shown) [Form D, 3-(4-amino-1-oxo-1,3 dihydro-isoindol-2-yl)-piperidene-2,6-dione]
hygroscopicity [8]: either weakly or not hygroscopic

Nc1cccc2c1CN(C1CCC(=O)NC1=O)C2=O (stereo not shown) [Form E, 3-(4-amino-1-oxo-1,3 dihydro-isoindol-2-yl)-piperidene-2,6-dione]
stability / interconversion of polymorphic form [8]: most stable form
